# Key:
# [1] = Absorption test, concentration of the compounds in serum by HPLC; assay type: in vivo; conditions: mouse, mice, 100 mg/kg body weight, oral administration, serum at 1, 3, 5 and 24 hours, read-out: time at which concentration in serum reached a maximum
# Protocol: An absorption test was performed using ketonitrile derivatives of the present invention (Compound Nos. […] and 155) on mice by dosing the derivatives in amounts of 100 mg/kg body weight. One, three, five, and 24 hours after administration of the compounds, blood was harvested and serum was separated therefrom. The concentration of the compounds in serum was determined by HPLC. As a result, Compound No. 155 and Compound No. 101 reached a maximum in concentration after 1 hour and 3 hours of administration, respectively.
# [2] = test system: Pasteurella multocida (Kobe-6); test: Antibacterial activity (IC), agar as in Example 8 (Example 17, Table 50); assay type: cell-based; conditions: 18 h, origin pig
# Summary of the method: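 Agar dilution on Mueller-Hinton agar with compound at 100, 10 and 1 µg/ml, inoculated at 10^6 CFU/ml with pig-origin strain Kobe-6. After 18 h at 37 °C, IC scored from turbidity and reported as a band (≤100, ≤10, ≤1 µg/ml).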
# [3] = test system: methicillin-resistant Staphylococcus aureus (MRSA) from humans; test: Antibacterial activity (IC), agar as in Example 8 (Example 19, Table 52); assay type: cell-based; conditions: 18 h
# Summary of the method: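 MRSA human isolate at 10^6 CFU/ml on Mueller-Hinton agar containing compound at 100, 10 or 1 µg/ml, grown 18 h at 37 °C. IC is the lowest tested level that inhibited growth, binned as ≤100, ≤10 or ≤1 µg/ml.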
# [4] = test system: Bordetella bronchiseptica (SM2-4); test: Antibacterial activity (IC), agar as in Example 8 (Example 18, Table 51); assay type: cell-based; conditions: 18 h
# Protocol: (§1) The antibacterial action was evaluated by the inhibitory concentration (hereinafter abbreviated as IC) at which propagation of the bacteria cultured at 37°C for 18 hours was inhibited. Inhibition was determined by the turbidity of the medium. The expressions "IC≤100", "≤10", and "≤1" indicate that MIC-equivalent values obtained at the succesive […] dilution of the sample are 100-10 µg/ml, 10-1 µg/ml, and not more than 1 µg/ml, respectively. […] (In the subsequent Examples, the same rule applies correspondingly.) Table 39
# (§2) A suitable amount of a sample was dissolved in dimethylsulfoxide (DMSO), after which the resulting solution was diluted with the same amount of sterilized distilled water to prepare a bulk sample of 1,000 µg/ml. Separately, a bacterial liquid for the test (methicillin-resistant Staphylococcus aureus (MRSA) isolated from humans) which had been cultured in Mueller-Hinton broth (product of DIFCO) was prepared and inoculated to a Mueller-Hinton agar (product of DIFCO) containing the sample so that the final inoculation amount of 10^6 CFU/ml was achieved. The final concentrations of the samples were 100, 10, and 1 µg/ml.
# (§3) After culturing at 37°C for 18 hours, the antibacterial activity was evaluated in terms of IC in a manner similar to that described in Example 4.
# (§4) In a manner similar to that described in Example 8, antibacterial activity of the invention compound was determined. The bacterium used for the test was Bordetella bronchiseptica (S1) and Bordetella bronchiseptica (SM2-4).
# [5] = test system: Bordetella bronchiseptica (S1); test: as above; assay type: cell-based; conditions: 18 h
# Protocol: as §1, §2, §3, §4
# [6] = test system: Streptococcus aureus (TI-1); test: Antibacterial activity (IC), agar as in Example 8 (Example 16, Table 49); assay type: cell-based; conditions: 18 h
# Summary of the method: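 Compound at final 100, 10 or 1 µg/ml in Mueller-Hinton agar, inoculated with […] aureus (TI-1) at 10^6 CFU/ml and cultured 37°C for 18 h. Inhibition read from medium turbidity; IC given as 100-10, 10-1 or ≤1 µg/ml ranges from 2-fold dilution.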
# Enterococcus from fish = test: Antibacterial activity (IC), agar as in Example 8, media with 1.5% NaCl, 25°C (Example 20, Tables 53-55); assay type: cell-based; conditions: for MIC: Enterococcus Seriolicida SE94-002
# Summary of the method: (§5)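 Growth inhibition was scored by turbidity after culture at 25°C, with IC bands set from 2-fold-dilution MIC-equivalents. Samples were tested at final 100, 10 and 1 µg/ml in Mueller-Hinton agar with 1.5% NaCl, seeded with 10^6 CFU/ml of the fish isolates.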
# Pasteurella from fish = test: as above; assay type: cell-based; conditions: for MIC: Pasteurella piscicida KP94-02
# Summary of the method: as §5
# [7] = test system: Staphylococcus aureus (209-P); test: Antibacterial activity (IC), agar as in Example 8 (Example 15, Table 48); assay type: cell-based; conditions: 18 h
# Summary of the method: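 Samples in DMSO, diluted with sterile water, incorporated into Mueller-Hinton agar at 1, 10 and 100 µg/ml final. Bacteria seeded at 10^6 CFU/ml and grown 18 h at 37°C. Inhibition read as turbidity; values reported as IC ranges rather than exact MICs.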
# in vivo = conditions: mouse, oral administration, single dose, suspended in aqueous 0.5% CMC solution, male mice, observed for 14 days
# Protocol: Acute toxicity (LD50) of a ketonitrile derivative of the present invention (Compound No. 4) was tested using male mice (Slc:ddY, 5 weeks old). To groups of each 5 mice, the compounds suspended in aqueous 0.5% CMC solution were forcibly dosed orally at a single time so that the final dosages of 707, 1,000, 1,414, and 2,000 mg/kg were attained. […] As a result, LD50 value under conditions of oral administration was estimated to be higher than 2,000 mg/kg. Thus, the compound was confirmed to be quite non-toxic.
# To groups of each 5 mice, the compounds suspended in aqueous 0.5% CMC solution were forcibly dosed orally at a single time so that the final dosages of 500, 1,000, 1,500, and 2,000 mg/kg were attained. […] As a result, the LD50 value was estimated to be higher than 2,000 mg/kg. Thus, the compounds were confirmed to be quite non-toxic.
# [8] = Enterococcus Seriolicida KG86050
# [9] = Enterococcus Seriolicida MS89060
# [10] = Enterococcus Seriolicida MS89064
# [11] = Enterococcus Seriolicida MS89066
# [12] = Enterococcus Seriolicida MS89068
# [13] = Enterococcus Seriolicida SE94-001
# [14] = Enterococcus Seriolicida SE94-003
# [15] = Enterococcus Seriolicida SE94-004
# [16] = Enterococcus Seriolicida SE94-005
Compound,MIC [2] [µg/mL],MIC ([3]; MRSA strain 891179) [µg/mL],MIC ([3]; MRSA strain 891185) [µg/mL],MIC ([3]; MRSA strain 891187) [µg/mL],MIC ([3]; MRSA strain 891192) [µg/mL],MIC ([3]; MRSA strain 900048) [µg/mL],MIC ([3]; MRSA strain 900056) [µg/mL],MIC [6] [µg/mL],IC (Enterococcus from fish; Enterococcus Seriolicida HI) [µg/mL],IC (Enterococcus from fish; [8]) [µg/mL],IC (Enterococcus from fish; [9]) [µg/mL],IC (Enterococcus from fish; [10]) [µg/mL],IC (Enterococcus from fish; [11]) [µg/mL],IC (Enterococcus from fish; [12]) [µg/mL],IC (Enterococcus from fish; [13]) [µg/mL],MIC (Enterococcus from fish) [µg/mL],IC (Enterococcus from fish; [14]) [µg/mL],IC (Enterococcus from fish; [15]) [µg/mL],IC (Enterococcus from fish; [16]) [µg/mL],MIC (Pasteurella from fish) [µg/mL],other results
"CC(Oc1cccc(Oc2ncc(C(F)(F)F)cc2Cl)c1)C(=O)C(C#N)c1ccc(Cl)c(Cl)c1 (centres unmarked) [Compound No. 101, 4-[3-(3-chloro-5-trifluoromethyl-2-pyridyloxy)phenoxy]-2-(3,4-dichlorophenyl)-3-oxopentanonitrile]",,,,,,,,,,,,,,,,,,,,,Tmax [1]: 3 h
"CC(Oc1cc(Oc2ccc(C(F)(F)F)cc2Cl)ccc1Cl)C(=O)C(C#N)c1cccc(Br)c1 (centres unmarked) [Compound No. 155, 2-(3-bromophenyl)-4-[5-(2-chloro-4-trifluoromethylphenoxy)-2-chlorophenoxy]-3-oxopentanonitrile]",10 to 100,≤ 1,≤ 1,≤ 1,≤ 1,≤ 1,≤ 1,≤ 1,≤ 1,≤ 1,≤ 1,≤ 1,≤ 1,≤ 1,≤ 1,≤ 1,≤ 1,≤ 1,≤ 1,10 to 100,Tmax [1]: 1 h; MIC [4]: 10 to 100 µg/mL; MIC [5]: 10 to 100 µg/mL; IC (Pasteurella from fish; Pasteurella piscicida KP94-04): ≤100 (MIC-equivalent values obtained at the succesive 2-fold dilution of the sample are 100-10 µg/ml); IC (Pasteurella from fish; Pasteurella piscicida KP94-05): ≤100 (MIC-equivalent values obtained at the succesive 2-fold dilution of the sample are 100-10 µg/ml); IC (Pasteurella from fish; Pasteurella piscicida KP94-06): ≤100 (MIC-equivalent values obtained at the succesive 2-fold dilution of the sample are 100-10 µg/ml); MIC [7]: ≤ 1 µg/mL; LD50 at 336 h (in vivo): > 2000 mg/kg
CC(Oc1cc(Cl)cc(Oc2ccc(C(F)(F)F)cc2Cl)c1)C(=O)C(C#N)c1cccc(Br)c1 (centres unmarked) [compound 213],1 to 10,1 to 10,≤ 1,≤ 1,≤ 1,1 to 10,1 to 10,1 to 10,≤ 1,≤ 1,≤ 1,≤ 1,≤ 1,≤ 1,≤ 1,≤ 1,≤ 1,≤ 1,≤ 1,1 to 10,MIC [4]: 10 to 100 µg/mL; MIC [5]: 10 to 100 µg/mL; IC (Pasteurella from fish; Pasteurella piscicida KP94-04): ≤10 (10-1 µg/ml); IC (Pasteurella from fish; Pasteurella piscicida KP94-05): ≤10 (10-1 µg/ml); IC (Pasteurella from fish; Pasteurella piscicida KP94-06): ≤10 (10-1 µg/ml); MIC [7]: 1 to 10 µg/mL
"CC(Oc1cccc(Oc2ccc(C(F)(F)F)cc2Cl)c1)C(=O)C(C#N)c1ccc(Cl)c(Cl)c1 (centres unmarked) [Compound No. 103, 4-[3-(2-chloro-4-trifluoromethylphenoxy)phenoxy]-2-(3,4-dichlorophenyl)-3-oxopentanonitrile]",1 to 10,≤ 1,≤ 1,≤ 1,≤ 1,≤ 1,≤ 1,≤ 1,≤ 1,≤ 1,≤ 1,≤ 1,≤ 1,≤ 1,≤ 1,≤ 1,≤ 1,≤ 1,≤ 1,1 to 10,IC (Pasteurella from fish; Pasteurella piscicida KP94-04): ≤10 (10-1 µg/ml); IC (Pasteurella from fish; Pasteurella piscicida KP94-05): ≤10 (10-1 µg/ml); IC (Pasteurella from fish; Pasteurella piscicida KP94-06): ≤10 (10-1 µg/ml); MIC [7]: ≤ 1 µg/mL; LD50 at 336 h (in vivo): > 2000 mg/kg
